# Like-named read-outs stand apart in the source and are kept apart here.
# How the values were obtained:
# murine IDO = target: T1, murine IDO (Mus musculus, UniProt P28776); assay: Cell based IDO/kynurenine assay in 293-T-Rex cells expressing murine IDO; settings: read-out: mIDO EC50
# T1 construct: expressed in transfected cells; host or cells: 293-T-REx cells (Invitrogen), doxycycline-inducible CMV-tet promoter
# Experimental: Transfected cells were selected in DBZ medium (DMEM, 10% FBS, 1× Penicillin+Streptomycin, 2 mM L-glutamine, 5 μg/mL blasticidin and 25 μg/ml Zeocin) at 37° C. with a 5% CO2 in air atmosphere. Individual clones were isolated by limiting dilution cloning from these populations.
# The cells incubated in Neutral medium serve as negative control of the assay. The cells incubated in Induction medium and without inhibitor serve as the positive control of the assay. The incubation is carried out for 16 h at 37° C. in a cell culture incubator. 200 μL of medium are transferred to U-bottom polypropylene 96-well plates containing 25 μL of 30% TCA, incubated 30 minutes at 60° C. and centrifuged at 3400 g for 5 minutes. 150 μL of the clear supernatant is transferred to a polystyrene 96-well plate containing 50 μL of 4% (w/v) of p-dimethylaminobenzaldehyde in acetic acid, incubated for 10 min. Kynurenine concentration is determined by measuring the absorbance at 480 nm.
# [1] = tested on: 293-T-Rex cells expressing murine IDO; assay: Toxicity / cell viability (LD50) in the murine IDO cell based assay
# human IDO = human IDO (Homo sapiens, UniProt P14902); assay: Cell based IDO/kynurenine assay in IDO-293-T-Rex cells; settings: kynurenine production, read-out: hIDO EC50
# In short: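 293-T-REx cells stably carrying doxycycline-inducible human or murine IDO were incubated with inhibitors in induction medium for 16 h at 37° C. Medium was TCA-treated at 60° C and reacted with p-dimethylaminobenzaldehyde. Kynurenine was quantified by absorbance at 480 nm.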
# IDO-293-T-Rex cells = tested on: IDO-293-T-Rex cells
# Experimental: To measure the toxicity of each compound after 16 h incubation with cells, cell viability is measured via a WST-1 assay (Roche) according to instructions from the manufacturer. Briefly, after the incubation with each compound, medium is aspirated and replaced with […] of WST-1 reagent, and incubated 30 min at 37° C. Absorbance at 540 nm is correlated with the number of viable cells. Determination of IC50 (Kynurenine assay) or LD50 (WST-1 assay) is performed via non-linear regression analysis using GraphPad Prism software.
# Viability was measure by the WST assay as described in one of the examples.
# [2] = target: purified human IDO protein (Homo sapiens, UniProt P14902); assay: Enzymatic IDO assay (kynurenine production, absorbance 480 nm); settings: enzymatic activity
# [3] = Table 15, 293T cells expressing human IDO
# [4] = hIDO IC50, Table 15, recombinant human IDO
# [5] = Table 16, cells expressing murine IDO
# [6] = Table 16, 293T cells expressing human IDO
# [7] = hIDO IC50, Table 16, recombinant human IDO
# [8] = Table 15, cells expressing murine IDO
# human IDO, sequence (P14902 whole entry): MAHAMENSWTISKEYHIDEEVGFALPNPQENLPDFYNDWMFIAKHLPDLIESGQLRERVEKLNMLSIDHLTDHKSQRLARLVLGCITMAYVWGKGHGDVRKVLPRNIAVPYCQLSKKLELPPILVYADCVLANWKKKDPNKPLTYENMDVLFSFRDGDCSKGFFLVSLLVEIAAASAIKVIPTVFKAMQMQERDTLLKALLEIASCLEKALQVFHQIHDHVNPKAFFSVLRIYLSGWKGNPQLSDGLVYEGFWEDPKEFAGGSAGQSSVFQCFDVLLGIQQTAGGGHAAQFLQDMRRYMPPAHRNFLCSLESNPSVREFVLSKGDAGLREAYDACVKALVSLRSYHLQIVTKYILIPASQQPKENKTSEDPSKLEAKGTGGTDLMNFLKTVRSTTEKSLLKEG
# T1 sequence (P28776 whole entry): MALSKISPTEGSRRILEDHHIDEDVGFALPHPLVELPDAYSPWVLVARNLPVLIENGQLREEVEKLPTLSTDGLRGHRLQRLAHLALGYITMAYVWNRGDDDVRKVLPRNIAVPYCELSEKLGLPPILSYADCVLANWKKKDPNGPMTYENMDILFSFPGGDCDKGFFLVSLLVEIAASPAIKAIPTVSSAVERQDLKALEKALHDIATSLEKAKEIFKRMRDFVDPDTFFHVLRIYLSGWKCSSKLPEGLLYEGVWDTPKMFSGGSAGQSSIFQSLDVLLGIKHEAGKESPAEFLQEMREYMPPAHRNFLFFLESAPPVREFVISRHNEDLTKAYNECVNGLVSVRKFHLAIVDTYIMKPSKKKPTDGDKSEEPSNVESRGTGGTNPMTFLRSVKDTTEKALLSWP
# purified human IDO protein, sequence (P14902 whole entry P110S/E119G): as the sequence (P14902 whole entry) above, with P110S, E119G counted along it
Compound,EC50 (human IDO; [3]),"IC50 [2, 4]",EC50 (murine IDO; [5]),EC50 (human IDO; [6]),"IC50 [2, 7]",EC50 (murine IDO; [8]),also measured
"NOCc1cc(F)cc(F)c1 [compound 1770, O-(3,5-difluorobenzyl)hydroxylamine]",< 10 µM,< 10 µM,–,–,–,–,"EC50 (murine IDO; Table 15, printed as a number instead of a range class): 2.3 µM; mIDO LD50 [1]: D (key: A: <10 μM; B: 10-100 μM; C: 100-1000 μM; D>1000 μM); hIDO LD50 (IDO-293-T-Rex cells): D (key: A: <10 μM; B: 10-100 μM; C: 100-1000 μM; D>1000 μM)"
"NOCc1cccc(Cl)c1 [compound 1672, O-(3-chlorobenzyl)hydroxylamine]",–,–,< 10 µM,< 10 µM,< 10 µM,–,mIDO LD50 [1]: D (key: A: <10 μM; B: 10-100 μM; C: 100-1000 μM; D>1000 μM); hIDO LD50 (IDO-293-T-Rex cells): D (key: A: <10 μM; B: 10-100 μM; C: 100-1000 μM; D>1000 μM)
"NOCc1ccccc1I [compound 1817, O-(2-iodobenzyl)hydroxylamine]",–,–,10 to 100 µM,< 10 µM,< 10 µM,–,mIDO LD50 [1]: D (key: A: <10 μM; B: 10-100 μM; C: 100-1000 μM; D>1000 μM); hIDO LD50 (IDO-293-T-Rex cells): D (key: A: <10 μM; B: 10-100 μM; C: 100-1000 μM; D>1000 μM)
"Cc1nc(-c2ccccc2)ncc1CON [compound 1740, O-((4-methyl-2-phenylpyrimidin-5-yl)methyl)hydroxylamine]",< 10 µM,10 to 100 µM,–,–,–,< 10 µM,–
"NOCC1CCc2ccccc2O1 (centres unmarked) [compound 1768, O-(chroman-2-ylmethyl)hydroxylamine]",< 10 µM,< 10 µM,–,–,–,< 10 µM,–
"NOCc1ccc(C(F)(F)F)cc1 [compound 934, O-(4-(trifluoromethyl)benzyl)hydroxylamine]",–,–,< 10 µM,< 10 µM,< 10 µM,–,–
"NOCc1cc(Cl)ccc1-c1ccc(Cl)cc1 [compound 1892, O-((4,4′-dichlorobiphenyl-2-yl)methyl)hydroxylamine]",< 10 µM,< 10 µM,–,–,–,< 10 µM,–
"NOCc1ccccc1[N+](=O)[O-] [compound 811, O-(2-nitrobenzyl)hydroxylamine]",–,–,10 to 100 µM,< 10 µM,< 10 µM,–,–
"NOCc1cccc([N+](=O)[O-])c1 [compound 317, O-(3-nitrobenzyl)hydroxylamine]",–,–,< 10 µM,< 10 µM,< 10 µM,–,"EC50 (human IDO; 293T cell line stably expressing human IDO, values reported in ranges): < 20 µM; IC50 ([2]; hIDO IC50, recombinant human IDO, values reported in ranges): < 20 µM"
"CNC(=O)C(ON)c1ccccc1 (centres unmarked) [compound 1897, 2-(aminooxy)-N-methyl-2-phenylacetamide]",< 10 µM,< 10 µM,–,–,–,< 10 µM,–
"COC(=O)C(ON)c1ccccc1 (centres unmarked) [compound 1886, methyl 2-(aminooxy)-2-phenylacetate]",< 10 µM,< 10 µM,–,–,–,< 10 µM,–
"NOCc1cccc(CON)c1 [compound 1823, O,O′-(1,3-phenylenebis(methylene))bis(hydroxylamine)]",–,–,< 10 µM,10 to 100 µM,10 to 100 µM,–,–
"NOCc1cccc(NCc2ccccc2)c1 [compound 1828, 3-(aminooxymethyl)-N-benzylaniline]",10 to 100 µM,100 to 1000 µM,–,–,–,100 to 1000 µM,–
"NOCc1cc(Cl)cc(-c2ccc(Cl)cc2)c1 [compound 1893, O-((4′,5-dichlorobiphenyl-3-yl)methyl)hydroxylamine]",< 10 µM,< 10 µM,–,–,–,10 to 100 µM,–
"NOCc1cc(Cl)ccc1-c1ccccc1Cl [compound 1915, O-((2′,4-dichlorobiphenyl-2-yl)methyl)hydroxylamine]",10 to 100 µM,< 10 µM,–,–,–,100 to 1000 µM,–
"NOCc1ccncc1 [compound 1737, O-(pyridin-4-ylmethyl)hydroxylamine]",< 10 µM,10 to 100 µM,–,–,–,< 10 µM,–

Compound,EC50 (human IDO; [3]),"IC50 [2, 4]",EC50 (murine IDO; [5]),EC50 (human IDO; [6]),"IC50 [2, 7]",EC50 (murine IDO; [8]),also measured
"NOCc1ccccn1 [compound 1739, O-(pyridin-2-ylmethyl)hydroxylamine]",< 10 µM,10 to 100 µM,–,–,–,< 10 µM,–
"NOCCc1cccc([N+](=O)[O-])c1 [compound 1752, O-(3-nitrophenethyl)hydroxylamine]",–,–,< 10 µM,< 10 µM,< 10 µM,–,–
"NOCc1ccc(CON)cc1 [compound 1492, O,O′-(1,4-phenylenebis(methylene))bis(hydroxylamine)]",–,–,10 to 100 µM,< 10 µM,10 to 100 µM,–,–
"NOCc1ccccc1-c1ccncc1 [compound 1889, O-(2-(pyridin-4-yl)benzyl)hydroxylamine]",< 10 µM,10 to 100 µM,–,–,–,100 to 1000 µM,–
"NOC(c1ccccc1)C1CCCCC1 (centres unmarked) [compound 1920, O-(cyclohexyl(phenyl)methyl)hydroxylamine]",< 10 µM,< 10 µM,–,–,–,10 to 100 µM,–
"NOCc1ccccc1NCc1ccccc1 [compound 1662, 2-(aminooxymethyl)-N-benzylaniline]",< 10 µM,< 10 µM,–,–,–,100 to 1000 µM,–
"NOCc1cccc(Br)c1 [compound 1656, O-(3-bromobenzyl)hydroxylamine]",–,–,< 10 µM,< 10 µM,< 10 µM,–,–
"COc1ccc(-c2ccc(Cl)cc2CON)cc1 [compound 1914, O-((4-chloro-4′-methoxybiphenyl-2-yl)methyl)hydroxylamine]",< 10 µM,< 10 µM,–,–,–,10 to 100 µM,–
"NOCc1cc(Cl)ccc1-c1ccccc1 [compound 1916, O-((4-chlorobiphenyl-2-yl)methyl)hydroxylamine]",< 10 µM,< 10 µM,–,–,–,10 to 100 µM,–
"NOCc1ccc([N+](=O)[O-])cc1 [compound 1014, O-(4-nitrobenzyl)hydroxylamine]",–,–,10 to 100 µM,< 10 µM,10 to 100 µM,–,–
"Cc1ccc(-c2cccc(CON)c2)cc1 [compound 1881, O-((4′-methylbiphenyl-3-yl)methyl)hydroxylamine]",< 10 µM,10 to 100 µM,–,–,–,10 to 100 µM,–
"NOC(CC1CCCCC1)c1ccccc1 (centres unmarked) [compound 1925, O-(2-cyclohexyl-1-phenylethyl)hydroxylamine]",< 10 µM,10 to 100 µM,–,–,–,10 to 100 µM,–
"NOCc1nc2ccccc2s1 [compound 1749, O-(benzo[d]thiazol-2-ylmethyl)hydroxylamine]",< 10 µM,< 10 µM,–,–,–,< 10 µM,–
"NOCc1ccc2c(c1)OCCO2 [compound 1750, O-((2,3-dihydrobenzo[b][1,4]dioxin-6-yl)methyl)hydroxylamine]",< 10 µM,10 to 100 µM,–,–,–,10 to 100 µM,–
"COc1ccccc1CON [compound 1678, O-(2-methoxybenzyl)hydroxylamine]",–,–,10 to 100 µM,< 10 µM,10 to 100 µM,–,–
"NOC(c1ccccc1)c1ccccc1 [compound 1922, O-benzhydrylhydroxylamine]",–,–,< 10 µM,< 10 µM,< 10 µM,–,–

# From patent US20130289083A1, “IDO Inhibitors” (priority 2007, published 2013)
